Test results published in US6809064B2, “Synergistic herbicidal compositions comprising herbicides from the benzoylcyclohexanedione group for use in rice crops” (Aventis CropScience GmbH, priority 2001, dated 2004).
Like-named read-outs stand apart in the source and are kept apart here.

Tests used:
SCPJU = assay: Post-emergence herbicidal action, submerged application; type: in vivo, Scirpus juncoides; conditions: for pest or weed control at 15 g/ha: dosage 15 g ai/ha
Procedure: (§1) The herbicidal efficacy of the active ingredients or active ingredient mixtures was scored visually by comparing the treated variants with untreated control variants. The damage and development of all aerial plant parts was recorded. Scoring was done on a percentage scale (100% action=all plants dead; 50% action=50% of the plants and green plant parts dead; 0% action=no discernible action=like untreated control plot).
(§2) Seeds or root segments of monocotyledonous and dicotyledonous weeds are placed in sandy loam in pots, covered with soil and grown in the greenhouse under good growth conditions (temperature, atmospheric humidity, water supply). Approximately three weeks after planting, the experimental plants are treated with the compositions according to the invention. In the case of spray application, the compositions according to the invention, which are formulated as wettable powders or emulsion concentrates, are sprayed onto the green plant parts in various dosages with an application rate of 600 to 800 l of water per ha (converted). Immediately to a few days after the application, the test containers are flooded with water up to a depth of 30 mm above the soil surface. In the case of submerged application, in contrast, the soil in the closed test container is already covered with paddy water up to a depth of 30 mm at the time of application. Here, the formulated active ingredients are added directly to the paddy water. After the experimental plants have remained in the greenhouse under optimal growth conditions for a further 3 to 4 weeks, the effect of the preparations is scored visually in comparison with untreated controls. The compositions according to the invention also have an outstanding herbicidal action against a broad spectrum of economically important grass weeds and broad-leaved weeds when applied post-emergence. Frequently, effects of the combinations according to the invention are observed which exceed the formal total of the effects when the herbicides are applied individually. When using suitable low dosages, the values observed in the experiments show an effect of the combinations which exceed the expected values calculated using Colby's formula.
(§3) When applying the combinations according to the invention, herbicidal effects are frequently observed on a harmful plant species which exceed the formal total of the effects of the herbicides present when these are applied by themselves. Alternatively, it is observed in some cases that a lower application rate is required for the herbicide combination in order to achieve the same effect on a harmful plant species in comparison with the individual products.
(§4) A, B=action of component A or B in percent at a dosage of a and b grams of ai/ha, respectively, and
(§5) E=expected value in % at a dosage of a+b grams of ai/ha.
(§6) Examples B.I to B.XVII have been conducted according to method B.2 (post-emergence herbicidal action) as mentioned above, wherein spray application has been applied in case of examples B.I to B.V. Submerged application has been applied in case of examples B.VI bis B.XVII.

SAGPY = assay: as above; type: in vivo, Sagittaria pygmaea
Procedure: as §1, §2, §3, §4, §5, §6

ECHCG = assay: Post-emergence herbicidal action, spray application; type: in vivo, Echinochloa crus galli
Procedure: as §1, §2, §3
A, B=action of component A or B in percent at a dosage of a and b grams of ai/ha, respectively, and […]

SEBEX = assay: as above; type: in vivo, Sesbania exaltata
Procedure: as §1
as §2, with “Frequently, effects of the combinations according to the invention are observed which exceed the formal total of the effects when the herbicides are applied individually.” left out, “formula. […]” for “formula.”

CYPSE = assay: Post-emergence herbicidal action, submerged application; type: in vivo, Cyperus serotinus; conditions: Example B.X, dosage 750 g ai/ha
Procedure: as §1
(§7) Seeds or root segments of monocotyledonous and dicotyledonous weeds are placed in sandy loam in pots, covered with soil and grown in the greenhouse under good growth conditions (temperature, atmospheric humidity, water supply). Approximately three weeks after planting, the experimental plants are treated with the compositions according to the invention. […] After the experimental plants have remained in the greenhouse under optimal growth conditions for a further 3 to 4 weeks, the effect of the preparations is scored visually in comparison with untreated controls. […] When using suitable low dosages, the values observed in the experiments show an effect of the combinations which exceed the expected values calculated using Colby's formula. […]

CHEAL = assay: Post-emergence herbicidal action, spray application; type: in vivo, Chenopodium album; conditions: Example B.I, dosage 10 g ai/ha
Procedure: as §1, §7

ECHOR = assay: Post-emergence herbicidal action, submerged application; type: in vivo; conditions: Example B.XIV, dosage 18.75 g ai/ha
Procedure: as §1, §7

CYPES = assay: Post-emergence herbicidal action, spray application; type: in vivo; conditions: Example B.IV, dosage 20 g ai/ha
Procedure: as §1, §7

[1] = Example B.II, dosage 100 g ai/ha
[2] = Example B.VI, submerged application, dosage 75 g ai/ha
[3] = Schoenoplectiella juncoides, read-out: SCPJU found
[4] = Sagittaria pygmaea, read-out: SAGPY found
[5] = Example B.III, dosage 100 g ai/ha
[6] = Example B.V, dosage 500 g ai/ha

Cc1ccccc1CO[C@@H]1C[C@@]2(C(C)C)CC[C@]1(C)O2 (racemic) [Compound B7.1, cinmethylin]
pest or weed control at 15 g/ha (SCPJU; Schoenoplectiella juncoides, Example B.IX, submerged application, read-out: SCPJU found): 0% | pest or weed control at 30 g/ha (SAGPY; Sagittaria pygmaea, Example B.IX, submerged application, dosage 30 g ai/ha, read-out: SAGPY found): 0%

O=C(O)COc1ccc(Cl)cc1Cl [Compound B1.1, 2,4-D]
ECHCG found (ECHCG; [1]): 50% | SEBEX found (SEBEX; [1]): 45%

CS(=O)(=O)c1ccc(C(=O)C2=C(Sc3ccccc3)C3CCC(C3)C2=O)c(Cl)c1 (stereo not drawn) [Compound B2.1, benzobicyclon]
SCPJU found (SCPJU; [2]): 30% | SAGPY found (SAGPY; [2]): 0%

Cc1ccc(C(=O)COc2c(C(=O)c3ccc(Cl)c(C)c3Cl)c(C)nn2C)cc1 [Compound B3.1, benzofenap]
pest or weed control at 300 g/ha (SCPJU; Schoenoplectiella juncoides, Example B.VII, submerged application, dosage 300 g ai/ha, read-out: SCPJU found): 0% | pest or weed control at 75 g/ha (SAGPY; Sagittaria pygmaea, Example B.VII, submerged application, dosage 75 g ai/ha, read-out: SAGPY found): 0%

CC(C)Oc1cc(-n2nc(C(C)(C)C)oc2=O)c(Cl)cc1Cl [Compound B4.2, oxadiazon]
pest or weed control at 22 g/ha (SCPJU; Schoenoplectiella juncoides, Example B.XV, submerged application, dosage 22 g ai/ha, read-out: SCPJU found): 10% | pest or weed control at 175 g/ha (SAGPY; Sagittaria pygmaea, Example B.XV, submerged application, dosage 175 g ai/ha, read-out: SAGPY found): 0%

CCN(CC)C(=O)n1cnc(S(=O)(=O)c2c(C)cc(C)cc2C)n1 [Compound B5.1, cafenstrole]
pest or weed control at 75 g/ha (SCPJU; [3]): 0% | pest or weed control at 150 g/ha (SAGPY; [4]): 0%

Cc1ccc(NC(=O)NC(C)(C)c2ccccc2)cc1 [Compound B5.2, daimuron]
pest or weed control at 375 g/ha (SAGPY; Sagittaria pygmaea, Example B.X, submerged application, dosage 375 g ai/ha, read-out: SAGPY found): 0% | CYPSE found (CYPSE): 0%

CSC(=O)c1c(C(F)F)nc(C(F)(F)F)c(C(=O)SC)c1CC(C)C [Compound B5.3, dithiopyr]
pest or weed control at 15 g/ha (SCPJU; Schoenoplectiella juncoides, Example B.XI, submerged application, read-out: SCPJU found): 0% | pest or weed control at 15 g/ha (SAGPY; Sagittaria pygmaea, Example B.XI, submerged application, dosage 15 g ai/ha, read-out: SAGPY found): 0%

CCN(C(=O)n1nnn(-c2ccccc2Cl)c1=O)C1CCCCC1 [Compound B5.4, fentrazamide]
pest or weed control at 75 g/ha (SCPJU; Schoenoplectiella juncoides, Example B.XIII, submerged application, dosage 75 g ai/ha, read-out: SCPJU found): 0% | pest or weed control at 37.5 g/ha (SAGPY; Sagittaria pygmaea, Example B.XIII, submerged application, dosage 37.5 g ai/ha, read-out: SAGPY found): 0%

CCOC(=O)c1cnn(C)c1S(=O)(=O)NC(=O)Nc1nc(OC)cc(OC)n1 [Compound B6.2, pyrazosulfuron-ethyl]
CHEAL found (CHEAL): 10%

CO/N=C(/C)c1cccc(Oc2nc(OC)cc(OC)n2)c1C(=O)OC [Compound B6.3, pyriminobac-methyl]
pest or weed control at 7.5 g/ha (SCPJU; [3]): 0% | pest or weed control at 7.5 g/ha (SAGPY; [4]): 0%

CCNc1nc(NC(C)C(C)C)nc(SC)n1 (stereo not drawn) [Compound B8.1, dimethametryn]
ECHCG found (ECHCG; [5]): 25% | SEBEX found (SEBEX; [5]): 50%

CCOCOc1ccc(C(=O)Nc2cccc(Cl)c2Cl)cc1 [Compound B9.1, etobenzamide]
SCPJU found (SCPJU; Example B.XII, submerged application, dosage 375 g ai/ha): 0% | SAGPY found (SAGPY; Example B.XII, submerged application, dosage 187 g ai/ha): 0%

CCC1(CC2(c3cccc(Cl)c3)CO2)C(=O)c2ccccc2C1=O (stereo not drawn) [Compound B10.1, indanofan]
pest or weed control at 37.5 g/ha (SCPJU; Schoenoplectiella juncoides, Example B.XIV, submerged application, dosage 37.5 g ai/ha, read-out: SCPJU found): 20% | ECHOR found (ECHOR): 50%

COc1cc(OC)nc(Sc2cccc3c2C(=O)OC3C)n1 (stereo not drawn) [Compound B12.1, pyriftalide]
pest or weed control at 100 g/ha (SCPJU; Schoenoplectiella juncoides, Example B.XVI, submerged application, dosage 100 g ai/ha, read-out: SCPJU found): 0% | pest or weed control at 50 g/ha (SAGPY; Sagittaria pygmaea, Example B.XVI, submerged application, dosage 50 g ai/ha, read-out: SAGPY found): 0%

CCCC(=NOCC(C)Oc1ccc(Cl)cc1)C1=C(O)CC(C2CCCSC2)CC1=O (stereo not drawn) [Compound B13.1, profoxydim]
ECHCG found (ECHCG; Example B.IV, dosage 20 g ai/ha): 30% | CYPES found (CYPES): 0%

NC1=C(Cl)C(=O)c2ccccc2C1=O [Compound B14.1, quinoclamine]
ECHCG found (ECHCG; [6]): 0% | SEBEX found (SEBEX; [6]): 0%
